Columns and labels:
Format in all cases: cell-based
STAT3 = target: T1, STAT3 (Homo sapiens, UniProt P40763); experiment: HiBiT assay, STAT3 degradation in STAT3-HiBiT KI HeLa cells; details: 24 h, read-out: STAT3 Degradation (HeLa 24 h HiBit) DC50
T1 construct: This cell line is a clone created by using CRISPR-Cas9 to fuse HiBiT to the 3′ end of STAT3 in HeLa cells; host or cells: STAT3-HiBiT KI HeLa cell line (CRISPR-Cas9 knock-in clone)
Method in brief: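 Luminescence of endogenous HiBiT-tagged STAT3 (C-terminal knock-in, HeLa) was measured with lytic Nano-Glo detection after 24 h exposure to serially diluted compounds at 37 °C. Cells plated at 20000/well; untreated cells served as control, and triplicate means were fit by four-parameter regression to give IC50.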

SU-DHL-1 cells = experiment: CellTiter-Glo 2.0 cell viability assay, SU-DHL-1; details: Homo sapiens, 96 h, 4 days
Method in brief: (§1)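 IC50 derived by four-parameter nonlinear regression on triplicate luminescence data (CellTiter-Glo 2.0), normalised to untreated controls. Cells plated at 1000/well received serial compound dilutions for 4 days at 37 °C with 5% CO2.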

SUP-M2 cells = experiment: CellTiter-Glo 2.0 cell viability assay, SUP-M2; details: SUP-M2, 96 h, 4 days
Method in brief: as §1

T1 sequence (P40763 whole entry): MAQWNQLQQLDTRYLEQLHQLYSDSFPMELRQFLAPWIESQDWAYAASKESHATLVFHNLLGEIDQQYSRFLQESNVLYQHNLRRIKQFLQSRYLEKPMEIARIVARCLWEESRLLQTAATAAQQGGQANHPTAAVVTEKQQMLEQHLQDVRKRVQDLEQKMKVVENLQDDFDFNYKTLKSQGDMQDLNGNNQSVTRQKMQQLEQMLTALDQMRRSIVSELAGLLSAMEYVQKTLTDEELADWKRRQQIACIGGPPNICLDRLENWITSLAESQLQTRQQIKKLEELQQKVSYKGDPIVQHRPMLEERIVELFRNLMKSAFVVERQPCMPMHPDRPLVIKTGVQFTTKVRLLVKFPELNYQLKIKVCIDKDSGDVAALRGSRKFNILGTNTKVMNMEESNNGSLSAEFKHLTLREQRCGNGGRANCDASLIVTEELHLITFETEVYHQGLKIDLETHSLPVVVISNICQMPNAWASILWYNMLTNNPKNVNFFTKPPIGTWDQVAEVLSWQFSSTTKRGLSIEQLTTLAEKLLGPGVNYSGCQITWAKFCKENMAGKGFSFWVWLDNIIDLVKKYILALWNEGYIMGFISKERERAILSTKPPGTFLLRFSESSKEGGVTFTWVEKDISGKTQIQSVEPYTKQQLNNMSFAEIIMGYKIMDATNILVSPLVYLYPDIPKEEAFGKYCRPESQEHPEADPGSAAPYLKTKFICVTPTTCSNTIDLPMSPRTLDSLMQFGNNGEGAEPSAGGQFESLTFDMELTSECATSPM

Cc1ncsc1-c1ccc([C@H](C)NC(=O)[C@@H]2C[C@@H](O)CN2C(=O)[C@@H](NC(=O)CCCC(=O)N2CC[C@H]3CC[C@@H](C(=O)N[C@@H](CCC(N)=O)C(=O)NC(c4ccccc4)c4ccccc4)N3C(=O)[C@@H](NC(=O)c3cc4cc(C(=O)P(=O)(O)O)ccc4[nH]3)C2)C(C)(C)C)cc1 [Compound 48, (2-(((5S,8S,10aR)-8-(((S)-5-amino-1-(benzhydrylamino)-1,5-dioxopentan-2-yl)carbamoyl)-3-(5-(((S)-1-((2S,4R)-4-hydroxy-2-(((S)-1-(4-(4-methylthiazol-5-yl)phenyl)ethyl)carbamoyl)pyrrolidin-1-yl)-3,3-dimethyl-1-oxobutan-2-yl)amino)-5-oxopentanoyl)-6-oxodecahydropyrrolo[1,2-a][1,5]diazocin-5-yl)carbamoyl)-1H-indole-5-carbonyl)phosphonic acid]
10 to 100 nM: DC50 (STAT3) | IC50 (SU-DHL-1 cells) | IC50 (SUP-M2 cells)
